Results reported in US8119637B2, “Substituted pyrrolo[2,3-b]pyrazines and methods for kinase modulation, and indications therefor” (Plexxikon Inc., priority 2008, dated 2012).
pIC50: −log10 of the molar value.

Legend:
Assay type in all cases: biochemical
Details in all cases: method of U.S. Ser. No. 11/473,347 or similar
Fms = Fms (Homo sapiens, UniProt P07333); experiment: Fms kinase activity assay
Source text: (§1) Assays for the activity of kinases, including, but not limited to, Fms, Kit, B-Raf, B-Raf V600E, B-Raf V600E/T5291 and c-Raf-1 are known in the art, for example as described in US Patent Publication Number US20070032519 and U.S. patent application Ser. No. 11/473,347 (see also, PCT publication WO2007002433), the disclosures of which are hereby incorporated by reference with respect to such assays.
(§2) Compounds P-0001 was screened by at least one of the methods described in U.S. patent application Ser. No. 11/473,347, or by similar methods.

Btk = Btk (Homo sapiens, UniProt Q06187); experiment: Btk kinase activity assay
Btk, sequence (Q06187 whole entry): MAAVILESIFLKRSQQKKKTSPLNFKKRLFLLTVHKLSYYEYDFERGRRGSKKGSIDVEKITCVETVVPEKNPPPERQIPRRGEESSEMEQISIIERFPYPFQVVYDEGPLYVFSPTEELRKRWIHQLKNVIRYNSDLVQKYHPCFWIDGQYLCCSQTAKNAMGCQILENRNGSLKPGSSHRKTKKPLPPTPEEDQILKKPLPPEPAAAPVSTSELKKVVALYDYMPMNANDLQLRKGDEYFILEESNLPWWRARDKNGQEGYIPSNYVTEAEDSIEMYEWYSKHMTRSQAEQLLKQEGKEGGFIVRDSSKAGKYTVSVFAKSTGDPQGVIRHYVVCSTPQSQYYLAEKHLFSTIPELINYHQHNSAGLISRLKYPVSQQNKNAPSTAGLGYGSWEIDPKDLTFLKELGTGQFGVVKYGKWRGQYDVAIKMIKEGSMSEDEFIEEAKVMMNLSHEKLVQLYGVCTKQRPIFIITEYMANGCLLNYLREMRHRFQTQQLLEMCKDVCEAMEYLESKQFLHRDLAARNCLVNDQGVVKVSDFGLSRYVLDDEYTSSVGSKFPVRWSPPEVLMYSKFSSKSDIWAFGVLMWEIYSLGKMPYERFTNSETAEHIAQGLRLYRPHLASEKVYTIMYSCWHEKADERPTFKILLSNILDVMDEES
Source text: as §1, §2

Kit = Kit (Homo sapiens, UniProt P10721); experiment: Kit kinase activity assay
Kit, sequence (P10721 26-976): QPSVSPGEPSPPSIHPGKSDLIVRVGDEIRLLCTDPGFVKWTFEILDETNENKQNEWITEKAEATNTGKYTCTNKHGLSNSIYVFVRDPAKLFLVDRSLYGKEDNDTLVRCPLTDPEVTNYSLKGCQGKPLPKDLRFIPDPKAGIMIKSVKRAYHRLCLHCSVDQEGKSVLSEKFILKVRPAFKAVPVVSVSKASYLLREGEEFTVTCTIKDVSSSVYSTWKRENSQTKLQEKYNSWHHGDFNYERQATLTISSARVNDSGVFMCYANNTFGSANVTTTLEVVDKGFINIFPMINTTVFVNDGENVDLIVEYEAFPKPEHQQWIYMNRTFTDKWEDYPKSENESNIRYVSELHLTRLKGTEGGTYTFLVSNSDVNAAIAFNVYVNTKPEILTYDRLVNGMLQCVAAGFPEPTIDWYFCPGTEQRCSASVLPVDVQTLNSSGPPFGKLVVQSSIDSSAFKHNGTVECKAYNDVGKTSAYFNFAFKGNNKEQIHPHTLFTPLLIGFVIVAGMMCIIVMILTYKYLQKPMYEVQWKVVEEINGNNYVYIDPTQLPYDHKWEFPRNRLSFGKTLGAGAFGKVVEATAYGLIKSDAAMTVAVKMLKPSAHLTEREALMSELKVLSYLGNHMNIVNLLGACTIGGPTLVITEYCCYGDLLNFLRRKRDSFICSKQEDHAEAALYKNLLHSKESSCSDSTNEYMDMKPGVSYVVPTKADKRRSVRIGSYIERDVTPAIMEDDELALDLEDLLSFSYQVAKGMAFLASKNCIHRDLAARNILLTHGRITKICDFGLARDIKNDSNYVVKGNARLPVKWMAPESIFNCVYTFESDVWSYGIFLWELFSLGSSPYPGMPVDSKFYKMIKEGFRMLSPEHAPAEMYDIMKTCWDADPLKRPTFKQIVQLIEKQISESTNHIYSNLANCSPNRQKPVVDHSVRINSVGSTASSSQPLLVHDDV
Source text: as §1, §2

Kdr = Kdr (Homo sapiens, UniProt P35968); experiment: Kdr kinase activity assay
Kdr, sequence (P35968 20-1356): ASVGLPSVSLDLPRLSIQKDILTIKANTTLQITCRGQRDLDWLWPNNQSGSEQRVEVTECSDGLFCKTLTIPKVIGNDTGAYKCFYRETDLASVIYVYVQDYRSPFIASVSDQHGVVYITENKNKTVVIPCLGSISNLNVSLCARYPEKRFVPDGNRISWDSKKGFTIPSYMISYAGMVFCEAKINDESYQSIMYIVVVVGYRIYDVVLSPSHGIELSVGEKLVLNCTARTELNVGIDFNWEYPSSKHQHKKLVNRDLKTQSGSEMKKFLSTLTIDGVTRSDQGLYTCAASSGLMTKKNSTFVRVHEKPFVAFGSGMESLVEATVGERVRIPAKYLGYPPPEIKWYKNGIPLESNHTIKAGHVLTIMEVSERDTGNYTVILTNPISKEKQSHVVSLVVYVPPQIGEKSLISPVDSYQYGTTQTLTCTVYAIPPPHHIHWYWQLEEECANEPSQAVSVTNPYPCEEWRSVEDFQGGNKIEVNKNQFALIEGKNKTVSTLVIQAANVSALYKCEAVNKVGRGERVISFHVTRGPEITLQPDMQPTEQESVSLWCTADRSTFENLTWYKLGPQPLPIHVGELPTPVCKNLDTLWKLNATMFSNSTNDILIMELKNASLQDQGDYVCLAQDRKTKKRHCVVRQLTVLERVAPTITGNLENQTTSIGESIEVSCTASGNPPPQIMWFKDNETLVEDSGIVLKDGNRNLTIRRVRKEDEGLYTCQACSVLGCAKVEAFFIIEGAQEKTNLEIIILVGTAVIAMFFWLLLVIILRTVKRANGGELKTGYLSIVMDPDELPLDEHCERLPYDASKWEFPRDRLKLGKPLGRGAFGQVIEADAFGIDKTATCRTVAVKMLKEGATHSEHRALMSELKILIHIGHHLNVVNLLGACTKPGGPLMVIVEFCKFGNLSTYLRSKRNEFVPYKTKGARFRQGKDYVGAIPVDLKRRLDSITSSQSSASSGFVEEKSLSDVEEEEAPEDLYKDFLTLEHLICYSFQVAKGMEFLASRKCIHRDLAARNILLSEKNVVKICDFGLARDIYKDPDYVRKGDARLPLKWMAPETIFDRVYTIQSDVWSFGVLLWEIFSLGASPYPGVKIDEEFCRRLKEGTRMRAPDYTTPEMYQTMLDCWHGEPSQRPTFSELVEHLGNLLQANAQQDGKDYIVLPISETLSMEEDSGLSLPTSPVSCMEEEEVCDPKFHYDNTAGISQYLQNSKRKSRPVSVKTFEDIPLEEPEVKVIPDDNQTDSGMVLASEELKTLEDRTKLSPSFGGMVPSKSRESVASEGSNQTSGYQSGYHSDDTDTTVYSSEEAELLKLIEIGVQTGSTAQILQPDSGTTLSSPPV
Source text: as §1, §2

Measured: pIC50

Fms, sequence (P07333 20-972): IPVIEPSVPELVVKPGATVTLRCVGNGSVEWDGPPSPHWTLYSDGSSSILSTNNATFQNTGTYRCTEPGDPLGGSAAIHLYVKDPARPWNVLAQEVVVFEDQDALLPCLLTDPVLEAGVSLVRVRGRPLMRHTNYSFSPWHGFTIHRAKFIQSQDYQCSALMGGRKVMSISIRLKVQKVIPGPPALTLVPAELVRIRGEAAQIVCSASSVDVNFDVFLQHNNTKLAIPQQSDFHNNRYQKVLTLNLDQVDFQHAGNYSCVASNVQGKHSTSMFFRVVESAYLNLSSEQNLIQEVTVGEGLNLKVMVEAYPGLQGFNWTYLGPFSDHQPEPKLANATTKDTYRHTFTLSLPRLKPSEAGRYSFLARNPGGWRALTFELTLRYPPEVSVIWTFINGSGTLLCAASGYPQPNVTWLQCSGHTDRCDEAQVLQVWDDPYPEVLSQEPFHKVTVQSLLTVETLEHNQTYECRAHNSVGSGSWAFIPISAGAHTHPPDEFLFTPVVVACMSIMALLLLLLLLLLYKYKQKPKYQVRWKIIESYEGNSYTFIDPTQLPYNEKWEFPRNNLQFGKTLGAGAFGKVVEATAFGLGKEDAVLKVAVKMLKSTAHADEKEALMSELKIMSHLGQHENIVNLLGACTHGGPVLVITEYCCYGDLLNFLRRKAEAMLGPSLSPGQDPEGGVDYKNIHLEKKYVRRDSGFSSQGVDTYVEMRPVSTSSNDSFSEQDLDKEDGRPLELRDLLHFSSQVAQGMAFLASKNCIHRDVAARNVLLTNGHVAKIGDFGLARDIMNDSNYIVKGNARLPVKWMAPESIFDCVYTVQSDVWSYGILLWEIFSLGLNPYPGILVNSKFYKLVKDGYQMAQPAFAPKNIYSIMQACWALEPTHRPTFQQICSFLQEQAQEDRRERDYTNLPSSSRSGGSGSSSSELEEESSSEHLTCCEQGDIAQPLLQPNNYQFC

COc1ccc(CNc2ccc(Cc3c[nH]c4nccnc34)cn2)cn1 [Compound P-0001, (6-methoxy-pyridin-3-ylmethyl)-[5-(5H-pyrrolo[2,3-b]pyrazin-7-ylmethyl)-pyridin-2-yl]-amine]
> 5.00: all assays above
